Holding throughout (format): cell-based
Test [1] has as its target T1, Ferroportin (Homo sapiens) (UniProt Q9NP59).
T1 sequence (whole entry): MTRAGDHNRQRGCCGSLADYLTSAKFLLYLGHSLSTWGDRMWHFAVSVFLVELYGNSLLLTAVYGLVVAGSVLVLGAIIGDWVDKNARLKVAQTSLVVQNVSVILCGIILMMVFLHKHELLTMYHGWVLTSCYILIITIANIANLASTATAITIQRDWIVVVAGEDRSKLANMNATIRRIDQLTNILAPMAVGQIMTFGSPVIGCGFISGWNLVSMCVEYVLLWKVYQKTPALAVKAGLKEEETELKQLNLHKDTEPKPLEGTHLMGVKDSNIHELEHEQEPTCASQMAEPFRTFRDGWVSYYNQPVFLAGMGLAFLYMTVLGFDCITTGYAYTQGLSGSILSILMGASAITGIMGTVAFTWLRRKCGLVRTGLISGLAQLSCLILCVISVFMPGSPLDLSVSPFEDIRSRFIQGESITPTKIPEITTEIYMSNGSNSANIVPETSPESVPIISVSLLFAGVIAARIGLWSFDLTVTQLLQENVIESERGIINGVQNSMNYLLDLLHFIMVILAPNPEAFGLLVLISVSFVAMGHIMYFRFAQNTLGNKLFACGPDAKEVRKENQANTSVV
Description: Inhibition of recombinant human C-terminal nano luciferase-tagged SLC40A1 expressed in human T-REx-293 cells assessed as decrease in 55Fe-apotransferrin export at 10 uM preincubated for 24 hrs followed by export buffer and compound addition measured after 5 mins by scintillation counting method.

Test [2] deals with T1, Ferroportin (Homo sapiens). Description: (§1) Inhibition of recombinant human SLC40A1 expressed in human T-REx-293 cells assessed as reduction in ferroportin internalization incubated for 20 hrs by luciferase reporter gene assay. (In general: A reporter such as luciferase makes a cellular process visible.)
Test [3] deals with T1, Ferroportin (Homo sapiens). Description: Inhibition of recombinant human SLC40A1 expressed in human T-REx-293 cells exposed to 4 hrs of doxycycline induction assessed as reduction in ferroportin internalization incubated for 20 hrs by luciferase reporter gene assay relative to control. The note with it: concentration not given here.
The target of test [4] is T1, Ferroportin (Homo sapiens). The test is described as follows: Inhibition of recombinant human SLC40A1 expressed in human T-REx-293 cells exposed to >4 hrs of doxycycline induction assessed as reduction in ferroportin internalization incubated for 20 hrs by luciferase reporter gene assay relative to control. The conditions noted are these: concentration not given here.

For test [5], the target named is T2, Ferroportin (Homo sapiens, UniProt Q9NP59).
T2 sequence (Q9NP59 whole entry): T1 sequence (whole entry)
The description is as §1.

The target of test [6] is T2, Ferroportin. The test is described as follows: Inhibition of human GFP-tagged SLC40A1 expressed in HEK293 cells assessed as ferroportin internalization by fluorescence microscopic analysis.
Test [7] has as its target T1, Ferroportin (Homo sapiens). Description: (§2) Inhibition of recombinant human C-terminal nano luciferase-tagged SLC40A1 expressed in human T-REx-293 cells assessed as ferroportin internalization incubated for 20 hrs measured at 459 nanometer by Hoechst staining based cellomics arrayscan imaging analysis.
Test [8] concerns the target T2, Ferroportin. The description is as §2.
The target of test [9] is T1, Ferroportin (Homo sapiens). The test is described as follows: Binding affinity to recombinant human C-terminal nano luciferase-tagged SLC40A1 expressed in human T-REx-293 cells assessed as internalization of compound-ferroportin conjugate at 0.0001 to 0.01 mg/ml incubated for 20 hrs measured at 549 nanometer by Hoechst staining based cellomics arrayscan imaging analysis.

Molecules are shown by their SMILES. Calls of active or inactive are those of the source. The rule behind the calls is not given here.

The inhibition is the drop in the measured response relative to a control, in per cent. Consider `CC[C@H](C)[C@@H]1NC(=O)[C@H](NC(=O)[C@@H](NC(=O)[C@@H]2CCCN2C(=O)[C@H](Cc2ccccc2)NC(=O)[C@H](Cc2cnc[nH]2)NC(=O)[C@@H](NC(=O)[C@@H](N)CC(=O)O)[C@@H](C)O)[C@@H](C)CC)CSSC[C@@H](C(=O)N[C@@H](CCCCN)C(=O)N[C@H](C(=O)O)[C@@H](C)O)NC(=O)[C@@H]2CSSC[C@@H]3NC(=O)[C@@H]4CSSC[C@H](NC(=O)[C@H](Cc5ccccc5)NC1=O)C(=O)N[C@@H](CSSC[C@H](NC(=O)[C@H](CCCCN)NC(=O)[C@H](CO)NC(=O)[C@H](CCCNC(=N)N)NC(=O)[C@H](Cc1cnc[nH]1)NC3=O)C(=O)NCC(=O)N[C@@H](CCSC)C(=O)N2)C(=O)NCC(=O)N4`, for which the inhibition entry in [1] was “Active”. The inhibition entry in test [2] is “Dose-dependent effect”; in [3] it was 50%; in test [4], 25%.
Usually EC50 stands for the concentration needed to bring the measured effect to its halfway point. As to `CC[C@H](C)[C@@H]1NC(=O)[C@@H](NC(=O)[C@@H](NC(=O)[C@@H]2CCCN2C(=O)[C@H](Cc2ccccc2)NC(=O)[C@H](Cc2c[nH]cn2)NC(=O)[C@@H](NC(=O)[C@@H](N)CC(=O)O)[C@@H](C)O)[C@@H](C)CC)CSSC[C@@H](C(=O)N[C@@H](CCCCN)C(=O)N[C@H](C(=O)O)[C@@H](C)O)NC(=O)[C@@H]2CSSC[C@@H]3NC(=O)[C@@H]4CSSC[C@H](NC(=O)[C@H](Cc5ccccc5)NC1=O)C(=O)N[C@@H](CSSC[C@H](NC(=O)[C@H](CCCCN)NC(=O)[C@H](CO)NC(=O)[C@H](CCCNC(=N)N)NC(=O)[C@H](Cc1c[nH]cn1)NC3=O)C(=O)NCC(=O)N[C@@H](CCSC)C(=O)N2)C(=O)NCC(=O)N4`, at Ferroportin [5], the concentration giving a half-maximal response (EC50) was 22 nM.
A word on the IC50: it is the point on the concentration scale where inhibition reaches its midpoint. As for `CC[C@H](C)[C@H](NC(=O)[C@H](CS)NC(=O)[C@@H](NC(=O)[C@@H]1CCCN1C(=O)[C@H](Cc1ccccc1)NC(=O)[C@H](Cc1cnc[nH]1)NC(=O)[C@@H](NC(=O)[C@H](CC(=O)O)NC(C)=O)[C@@H](C)O)[C@@H](C)CC)C(=O)N[C@@H](Cc1ccccc1)C(=O)O`, at Ferroportin [6], the half-maximal inhibitory concentration (IC50) is 76 nM.
On to `CC[C@H](C)[C@H](NC(=O)[C@H](CS)NC(=O)[C@@H](NC(=O)[C@@H]1CCCN1C(=O)[C@H](Cc1ccccc1)NC(=O)[C@H](Cc1c[nH]cn1)NC(=O)[C@@H](NC(=O)[C@H](CC(=O)O)NC(C)=O)[C@@H](C)O)[C@@H](C)CC)C(=O)N[C@@H](Cc1ccccc1)C(=O)NCCOCCOCCOCC(=O)N[C@H](CCCNC(=N)N)C(=O)N[C@H](CCCNC(=N)N)C(=O)N[C@H](CCCCNC(=O)CCCCCNC(=O)CCC1=C(C)C2=Cc3ccc(-c4ccc(OC)cc4)n3[B-](F)(F)[N+]2=C1C)C(=O)O`, for which the inhibition entry in test [2] and in [7] was “Dose-dependent effect” in each case. For the same compound, the figures for the concentration for a half-maximal effect (EC50) on Ferroportin [5] and on Ferroportin [8] were 347 nM and 1860 nM, respectively. The result in test [9] was Active.
With `CCCCCCCCCCCCCCCC(=O)NCCCOCCOCCOCCCNC(=O)C[C@H](Cc1ccccc1)NC(=O)[C@H](CCCNC(=N)N)NC(=O)[C@H](CS)NC(=O)[C@H](CCCNC(=N)N)NC(=O)C[C@@H]1CCCN1C(=O)[C@@H](NC(=O)[C@H](Cc1c[nH]cn1)NC(=O)[C@@H](NC(=O)CNCC(=O)O)[C@@H](C)O)C(c1ccccc1)c1ccccc1`, the concentration for a half-maximal effect (EC50) on Ferroportin [5] was 21 nM.
With `CCCCCCCCCCCCCCCC(=O)NCCCOCCOCCOCCCNC(=O)C[C@H](Cc1ccccc1)NC(=O)[C@H](CCCNC(=N)N)NC(=O)[C@@H](CS)NC(=O)[C@H](CCCNC(=N)N)NC(=O)C[C@@H]1CCCN1C(=O)[C@@H](NC(=O)[C@H](Cc1c[nH]cn1)NC(=O)[C@@H](NC(=O)CNCC(=O)O)[C@@H](C)O)C(c1ccccc1)c1ccccc1`, in [2], the inhibition result was “Dose-dependent effect”.

These data come from ChEMBL document CHEMBL4431298 (Medchemcomm, 2016).
